The source of these data is publication PMC5647378, “Structural and Mechanistic Analysis of Drosophila melanogaster Agmatine N-Acetyltransferase, an Enzyme that Catalyzes the Formation of N-Acetylagmatine” (Scientific Reports, 2017).

Changes are numbered by the printed parent chain. “And” between values parts separate entries of the source, which are not always exact repeats. Equal entries are not always repeated. Where two headings read alike, the source gives them in different places. Some results are limits rather than exact numbers.

Series [1] deals with T1, Drosophila melanogaster AgmNAT (CG15766), wild-type (Drosophila melanogaster, UniProt Q9W469). Briefly: AgmNAT steady-state kinetics, coenzyme A release with Ellman's reagent (DTNB). The class given is biochemical. The method, then: (§1) Steady-state kinetic constants for AgmNAT were determined by measuring the rate of coenzyme A release using Ellman’s reagent (DTNB) at 412 nm (molar absorptivity = 13,600 M^−1 cm^−1)[15]–[17]. […] Initial velocities were measured using a Cary 300 Bio UV-Visible spectrophotometer at 22 °C. Acyl-CoA kinetic constants were evaluated by holding the concentration of agmatine at a constant saturating concentration (5 mM). […] The apparent kinetic constants were determined by fitting the resulting data to equation 1 using SigmaPlot 12.0, where vo is the initial velocity, Vmax,app is the apparent maximal velocity, [S] is the substrate concentration, and Km,app is the apparent Michaelis constant. Each assay was performed in triplicate and the uncertainty for the kcat,app and (kcat/Km)app values were calculated using equation 2, where σ is the standard error.1 vo=Vmax,app[S]/Km,app+[S] 2 σ(x/y)=x/y(σx/x)^2+(σy/y)^2
T1 sequence (Q9W469 entry or part of it): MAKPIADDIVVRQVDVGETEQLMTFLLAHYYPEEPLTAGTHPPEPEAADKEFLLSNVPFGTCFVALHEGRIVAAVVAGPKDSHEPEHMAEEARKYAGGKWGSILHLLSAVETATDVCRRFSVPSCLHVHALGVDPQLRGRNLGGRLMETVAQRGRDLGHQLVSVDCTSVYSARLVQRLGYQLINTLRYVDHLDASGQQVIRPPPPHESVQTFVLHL

Another series addresses T2, AgmNAT E34A mutant (Drosophila melanogaster, UniProt Q9W469, E34A).
T2 sequence (Q9W469 1-216 E34A): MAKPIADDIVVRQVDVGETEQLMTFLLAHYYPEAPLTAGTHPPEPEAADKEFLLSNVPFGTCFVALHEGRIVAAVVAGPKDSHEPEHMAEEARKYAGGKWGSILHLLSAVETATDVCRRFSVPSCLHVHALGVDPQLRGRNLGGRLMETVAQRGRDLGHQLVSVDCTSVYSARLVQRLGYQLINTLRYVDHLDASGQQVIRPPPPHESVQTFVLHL
Briefly: Steady-state kinetics of AgmNAT site-directed mutant E34A. Type of series: biochemical. The note with it: for (kcat/Km)app–mutant/(kcat/Km)app–wild–type×100: E34A. As for the experimental part:
(§2) Site-directed mutants of AgmNAT were constructed by the overlap extension method. Using the primers shown in Table S1, each mutant was amplified using pfuUltra High-Fidelity DNA polymerase with the following PCR conditions: initial denaturing step of 95 °C for 2 min, then 30 cycles of 95 °C for 30 s; 60 °C annealing temperature for 30 s; 72 °C extension step for 1 min; then a final extension step of 72 °C for 10 min. Following the amplification of the AgmNAT site-directed mutant, the sub-cloning, expression, and purification procedures are the same as discussed for the wild-type enzyme.
as §1

For a further series, the target named is T3, AgmNAT P35A mutant (Drosophila melanogaster, UniProt Q9W469, P35A).
T3 sequence (Q9W469 1-216 P35A): T2 sequence (Q9W469 1-216 E34A) with A34E, P35A
Description: Steady-state kinetics of AgmNAT site-directed mutant P35A. Type of series: biochemical. As for the experimental part:
as §2
as §1, with “Each assay was performed in triplicate and the uncertainty for the kcat,app and (kcat/Km)app values were calculated using equation 2, where σ is the standard error.1 vo=Vmax,app[S]/Km,app+[S] 2 σ(x/y)=x/y(σx/x)^2+(σy/y)^2” left out

In a further series the target is T4, AgmNAT S171A mutant (Drosophila melanogaster, UniProt Q9W469, S171A).
T4 sequence (Q9W469 1-216 S171A): T2 sequence (Q9W469 1-216 E34A) with A34E, S171A
Briefly: Steady-state kinetics of AgmNAT site-directed mutant S171A. Type of series: biochemical. The note with it: for (kcat/Km)app–mutant/(kcat/Km)app–wild–type×100: S171A. As for the experimental part:
as §2, §1

The next series concerns the target T5, AgmNAT H206A mutant (Drosophila melanogaster, UniProt Q9W469, H206A).
T5 sequence (Q9W469 1-216 H206A): T2 sequence (Q9W469 1-216 E34A) with A34E, H206A
Description: Steady-state kinetics of AgmNAT site-directed mutant H206A. The class given is biochemical. As to conditions: for increase of Km,app versus wild-type: H206A mutant; for (kcat/Km)app–mutant/(kcat/Km)app–wild–type×100: H206A. As for the experimental part: as §2, §1

Series [2] concerns the target T1, Drosophila melanogaster AgmNAT (CG15766), wild-type. Briefly: AgmNAT dead-end and product inhibition analysis. Type of series: biochemical. The method, then:
Initial velocities were determined by varying the concentration of one substrate, while holding the other substrate at a fixed concentration. […] The resulting initial velocity data was fit to equation 3 for an ordered Bi-Bi mechanism and equation 4 for a ping pong mechanism using IGOR Pro 6.34 A, where vo is the initial velocity, Vmax is the maximal velocity, Kia is the dissociation constant for substrate A, Kb is the Michaelis constant for substrate B, Ka is the Michaelis constant for substrate A, [A] is the concentration of substrate A, and [B] is the concentration of substrate B.3 vo=Vmax[A][B]/KiaKb+Ka[B]+Kb[A]+[A][B] 4 vo=Vmax[A][B]/Ka[B]+Kb[A]+[A][B]
Inhibition experiments by either substrate analogs or N-acetylagamatine were used to discriminate between an ordered, random sequential, or ping pong kinetic mechanism. […] Initial velocity patterns were generated by varying the concentration of one substrate, holding the other substrate concentration at its apparent Km, and changing the concentration of inhibitor for each data set in triplicate. The resulting data was fit to equations 5–7, for competitive, noncompetitive, and uncompetitive inhibition respectively using SigmaPlot 12.0. For […], vo is the initial velocity, Vmax,app is the apparent maximal velocity, Km,app is the apparent Michaelis constant, [S] is the substrate concentration, [I] is the inhibitor concentration, and Ki is the inhibition constant.5 vo=Vmax,app[S]/Km,app(1+[I]/Ki)+[S] 6 vo=Vmax,app[S]/Km,app(1+[I]/Ki)+[S](1+[I]/Ki) 7 vo=Vmax,app[S]/Km,app+[S](1+[I]/Ki)

The target is the same in series [3]. Briefly: AgmNAT dead-end and product inhibition analysis. The note with it: inhibitor at 10 mM. Type of series: biochemical.
In the next series the target is Glu34 (UniProt position 34, HYYPEEPLTAG). Briefly: kinetics. As to conditions: 22 °C; MES (pH 6.5 and 7.0), Tris (pH 7.0-9.0), AmeP (pH 9.0 and 9.5). Concentrations for the pH series not stated (standard assay is 300 mM Tris with 150 µM DTNB).; Steady-state turnover; acetyl-CoA varied, agmatine as co-substrate (5 mM saturating in the standard assay); wild-type enzyme, triplicate.

One may read the Km as the concentration of substrate that gives half-maximal velocity. With `CC(=O)SCCNC(=O)CCNC(=O)[C@H](O)C(C)(C)COP(=O)(O)OP(=O)(O)OC[C@H]1O[C@@H](n2cnc3c(N)ncnc32)[C@H](O)[C@@H]1OP(=O)(O)O` [Acetyl-CoA], the “(kcat/Km)app–mutant/(kcat/Km)app–wild–type×100” value in series [1] (Wild-type, acetyl-CoA varied) amounted to 100%; on AgmNAT E34A mutant (acetyl-CoA varied) it was 0.27%; on AgmNAT P35A mutant (acetyl-CoA varied), 0.86%; on AgmNAT S171A mutant (acetyl-CoA varied), 34%; at AgmNAT H206A mutant (acetyl-CoA varied), 2.3%. Besides, the “kcat,app” value in series [1] (Wild-type, acetyl-CoA varied, saturating agmatine, pH 8.5) is 23 ± 1 s⁻¹; in series [1] (acyl-CoA varied, 5 mM agmatine, 300 mM Tris-HCl pH 8.5, 150 µM DTNB), 23 ± 1 s⁻¹. Besides, the Km in series [1] (acyl-CoA varied, 5 mM agmatine, 300 mM Tris-HCl pH 8.5, 150 µM DTNB, read-out: Km,app) came to 100 µM. The “decrease of Km,app versus wildtype” value at AgmNAT E34A mutant (E34A mutant, acetyl-CoA) amounted to 6 fold. In addition, the “change (decrease) of Km,app versus wildtype” value on AgmNAT S171A mutant (S171A mutant, acetyl-CoA) is given as 3- to 4 fold. Also, at AgmNAT H206A mutant (acetyl-CoA), the “increase of Km,app versus wild-type” value stood at 2.3 fold.
`NCCCCN=C(N)N` [Agmatine, (4-aminobutyl)guanidine]: the “(kcat/Km)app–mutant/(kcat/Km)app–wild–type×100” value in series [1] (Wild-type, agmatine varied) stood at 100%; on AgmNAT E34A mutant (agmatine varied) it was 0.0038%; at AgmNAT P35A mutant (agmatine varied) it was 3.2%; at AgmNAT S171A mutant (agmatine varied) it was 2.7%; on AgmNAT H206A mutant (agmatine varied), 4.7%. Moreover, the “increase of Km,app versus wildtype” value at AgmNAT E34A mutant (E34A mutant, agmatine) stood at 20 fold. In addition, on AgmNAT S171A mutant (S171A mutant, agmatine), the “change (increase) of Km,app versus wildtype” value is 3- to 4 fold. Besides, the “increase of Km,app versus wild-type” value at AgmNAT H206A mutant (agmatine) came to 1.4 fold.
What is called Ki is a dissociation constant, usually derived from enzyme kinetics or from competition with a known ligand. For `COC(=O)[C@@H](N)CCCN=C(N)N` [Arginine methyl ester, L-arginine methyl ester], in series [1] (amine substrate screen with acetyl-CoA), the “acceptance as amine substrate” value is “not AgmNAT substrates”. Also, the Ki in series [2] (varied substrate acetyl-CoA, constant agmatine (0.3 mM), listed as arginine methyl ester, read-out: Ki,i) was at least 1 mM; in series [2] (varied substrate acetyl-CoA, constant agmatine (0.3 mM), read-out: Ki,i) it was 2.9 ± 0.1 mM; in series [2] (varied substrate agmatine, constant acetyl-CoA (0.1 mM; 104 µM), listed as arginine methyl ester, read-out: Ki,s) it was at least 1 mM; in series [2] (varied substrate agmatine, constant acetyl-CoA (0.1 mM; 104 µM), read-out: Ki,s) it was 1.5 ± 0.1 mM. For the same compound, the “type of inhibition plot (in words)” value in series [2] (versus acetyl-CoA) is “uncompetitive”; in series [2] (versus agmatine), “competitive”. Moreover, in series [3], the “decrease of the rate of N-acetylagmatine formation from acetyl-CoA and agmatine” value is ~ 50%.
Usually pKa stands for the negative logarithm of the acid dissociation constant. As to “Agmatine N-acetyltransferase (AgmNAT; formerly arylalkylamine N-acetyltransferase-like 8, AANATL8) (Drosophila melanogaster)”, in the series with Glu34, the pKa is 7.7 ± 0.1 and 7.3 ± 0.2 and ~7.5.
